Where two headings read alike, the source gives them in different places.
Test system: Herpes simplex 1 Virus (HSV-1)
Experiment: Activity against systemic HSV-1 infection in NMRI mice, oral treatment
Type: in vivo, NMRI-Mäuse
Settings: for ED50: read-out: IC50 (nach Reed und Muench); for mittlere Überlebenszeit (Tage): oral
Text: Wirkung gegen systemische Herpes simplex 1 Virus (HSV-1) Infektion: NMRI-Mäuse, spezifisch pathogenfrei, im Gewicht von 15 bis 18 g wurden intraperitoneal mit HSV-1 infiziert und anschließend mit den erfindungsgemäßen Verbindungen oral therapiert. Die Behandlung erfolgte erstmals 3 Stunden nach der Infektion und wurde zweimal täglich über 4 Tage fortgesetzt. Der Behandlungserfolg wurde anhand des Krankheitsverlaufes und der Überlebensrate gegenüber der unbehandelten Infektionskontrolle bestimmt. Letztere erhielt anstelle der erfindungsgemäßen Verbindungen physiologische Kochsalzlösung appliziert. Die Beobachtungszeit betrug zwei Wochen. Tabelle 1 zeigt die Ergebnisse dieser Untersuchung.

[1] = Human alphaherpesvirus 1, 336 h, NMRI mouse, HSV-1 i.p. infection, oral treatment, 9 doses (first 3 h after infection, then twice daily over 4 days), 2 weeks observation

Q: For `Nc1ncc2c(ncn2COC(CO)CO)n1` [Formel 1, R1=R2=H (=Verb. der Formel 1'), 2-Amino-7-[(1,3-dihydroxy-2-propoxy)methyl]purin, reference compound], which ED50 [1] is on record?
A: Its ED50 is 34.5 µmol/kg.

Q: With `CC(C)(C)C(=O)OCC(COC(=O)C(C)(C)C)OCn1cnc2nc(N)ncc21` [Beispiel 1, 2-Amino-7-[(1,3-bis-pivaloyloxy-2-propoxy)methyl]purin] as the compound, how does the ED50 [1] read?
A: The ED50 was 19.7 µmol/kg.

Q: `Nc1ncc2c(ncn2COC(COC(=O)c2ccsc2)COC(=O)c2ccsc2)n1` [Beispiel 13] was tested. Which ED50 [1] did it give?
A: The ED50 was 5.6 µmol/kg.

Q: `CCCCC(=O)OCC(COC(=O)CCCC)OCn1cnc2nc(N)ncc21` [Beispiel 2, 2-Amino-7-[(1,3-bis-valeroyloxy-2-propoxy)methyl]purin] was tested. Which ED50 [1] did it give?
A: The ED50 was 12 µmol/kg.

Q: And the “mittlere Überlebenszeit (Tage)” value (Dosierung 9 x 10 µmol/kg)?
A: Its value is 9 ± 1,7 Tage.

Q: For `Nc1ncc2c(ncn2COC(CO)COC(=O)C2CCCCC2)n1` (stereo not shown) [Beispiel 10, 2-Amino-7-[(1-cyclohexancarbonyloxy-3-hydroxy-2-propoxy)methyl] purin], which ED50 [1] is on record?
A: The ED50 was 3.6 µmol/kg.

Q: How did the ED50 [1] turn out when `CCOCC(=O)OCC(COC(=O)COCC)OCn1cnc2nc(N)ncc21` [Beispiel 7, 2-Amino-7-[(1,3-bis-ethoxyacetoxy-2-propoxy)methyl]purin] was run?
A: The ED50 was 13.2 µmol/kg.

Q: Which ED50 (Human alphaherpesvirus 1, po, 336 h) does the source give for `Nc1ncc2c(ncn2COC(COC(=O)Cc2ccccc2)COC(=O)Cc2ccccc2)n1` [Beispiel 12, 2-Amino-7-[(1,3-bis-phenylacetoxy-2-propoxy)methyl]purin] here?
A: Its ED50 is under 10 µmol/kg.

Q: How did the ED50 [1] turn out when `Nc1ncc2c(ncn2COC(COC(=O)C2CCCCC2)COC(=O)C2CCCCC2)n1` [Beispiel 9, 2-Amino-7-[(1,3-bis-cyclohexancarbonyloxy-2-propoxy)methyl]purin] was run?
A: Its ED50 is 5.6 µmol/kg.

Q: With `Nc1ncc2c(ncn2COC(COC(=O)c2ccccc2)COC(=O)c2ccccc2)n1` [Beispiel 11, 2-Amino-7-[(1,3-bis-benzoyloxy-2-propoxy)methyl]purin] as the compound, how does the ED50 [1] read?
A: Its ED50 is 17.3 µmol/kg.

Q: `CCCCC(=O)OCC(CO)OCn1cnc2nc(N)ncc21` (stereo not shown) [Beispiel 3, 2-Amino-7-[(1-hydroxy-3-valeroyloxy-2-propoxy)methyl]purin] was tested. Which ED50 [1] did it give?
A: Its ED50 is under 9.3 µmol/kg.

Q: What about the “mittlere Überlebenszeit (Tage)” value (Dosierung 9 x 9,3 µmol/kg) of the same compound?
A: Its value is 10 Tage.

Q: With `COCC(=O)OCC(COC(=O)COC)OCn1cnc2nc(N)ncc21` [Beispiel 6, 2-Amino-7-[(1,3-bis-methoxyacetoxy-2-propoxy)methyl]purin] as the compound, how does the ED50 [1] read?
A: The ED50 was under 10 µmol/kg.

Q: And the “mittlere Überlebenszeit (Tage)” value (Dosierung 9 x 10 µmol/kg)?
A: Its value is 9 Tage.

Q: With `Nc1ncc2c(ncn2COC(COC(=O)Cc2cccnc2)COC(=O)Cc2cccnc2)n1` [Beispiel 15] as the compound, how does the ED50 [1] read?
A: Its ED50 is 10 µmol/kg.

Q: `Nc1ncc2c(ncn2COC(CO)COC(=O)c2ccsc2)n1` (stereo not shown) [Beispiel 14] was tested. Which ED50 [1] did it give?
A: The ED50 was 11.5 µmol/kg.
